The values below come from paper PMC9030947, “Identification of Novel Natural Product Inhibitors against Matrix Metalloproteinase 9 Using Quantum Mechanical Fragment Molecular Orbital-Based Virtual Screening Methods” (International Journal of Molecular Sciences, 2022).

pKd: −log10 of the molar value.

This assay deals with T1, MMP-9 (Homo sapiens, UniProt P14780).
T1 construct: gene MMP9; Purified recombinant human MMP-9 protein with a His-tag (catalog number 10327-H08H)
Put plainly: SPR (Biacore […], MMP-9 immobilized by amine coupling). The assay is classed as binding. Background: Surface plasmon resonance follows binding to a sensor surface in real time, without labels.

T1 sequence (P14780 107-707): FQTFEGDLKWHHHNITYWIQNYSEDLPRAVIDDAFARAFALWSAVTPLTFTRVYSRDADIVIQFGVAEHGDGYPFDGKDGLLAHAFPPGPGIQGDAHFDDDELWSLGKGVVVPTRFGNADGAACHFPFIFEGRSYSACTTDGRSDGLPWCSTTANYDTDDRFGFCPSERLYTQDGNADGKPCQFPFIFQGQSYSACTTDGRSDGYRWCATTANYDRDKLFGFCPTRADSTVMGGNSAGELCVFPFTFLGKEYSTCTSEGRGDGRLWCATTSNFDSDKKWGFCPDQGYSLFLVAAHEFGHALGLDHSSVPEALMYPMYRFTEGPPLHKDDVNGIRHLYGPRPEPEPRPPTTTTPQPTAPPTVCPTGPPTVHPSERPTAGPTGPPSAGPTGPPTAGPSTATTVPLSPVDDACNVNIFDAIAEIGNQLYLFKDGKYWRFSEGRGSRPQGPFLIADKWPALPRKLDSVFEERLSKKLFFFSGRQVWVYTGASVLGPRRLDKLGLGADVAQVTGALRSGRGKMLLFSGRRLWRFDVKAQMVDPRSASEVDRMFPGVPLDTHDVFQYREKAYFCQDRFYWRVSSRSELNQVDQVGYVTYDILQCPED

Take `COc1cc(O)c2c(=O)cc(-c3ccc(O)cc3)oc2c1` [compound 10, genkwanin]: the pKd (usually the negative decadic logarithm of the Kd, by convention in mol/L) was 6.21.

For `COc1cc2c(cc1O)-c1c(OC)c(O)cc3c1[C@H](C2)NCC3` [compound 9, laetanine], the pKd was 4.67.
